# Laboratory results published in US5929249A, “Substituted imidazolyl-alkyethio-aldanoic acids” (SmithKline Beecham Corporation, priority 1992, dated 1999).
# Test system: pressor response to angiotensin II
# Experiment: Inhibition of pressor response to angiotensin II in conscious rats
# Type: in vivo
# Conditions: Rattus norvegicus, i.v., intravenous angiotensin II 250 mg/kg [sic], change in mean arterial pressure, read-out: IC50 (dose of compound needed to produce 50% inhibition of the control response to angiotensin II)
# Description: Angiotensin II antagonist activity of the compounds of Formula (I) is assessed by in vitro and in vivo methods. In vitro antagonist activity is determined by the ability of the compounds to compete with ^125 I-angiotensin II for binding to vascular angiotensin II receptors and by their ability to antagonize the contractile response to angiotensin II in the isolated rabbit aorta. In vivo activity is evaluated by the efficacy of the compounds to inhibit the pressor response to exogenous angiotensin II in conscious rats and to lower blood pressure in a rat model of renin dependent hypertension.
# Rats are prepared with indwelling femoral arterial and venous catheters and a stomach tube (Gellai et al., Kidney Int. 15:419, 1979). Two to three days following surgery the rats are placed in a restrainer and blood pressure is continuously monitored from the arterial catheter with a pressure transducer and recorded on a polygraph. The change in mean arterial pressure in response to intravenous injections of […] angiotensin II is compared at various time points prior to and following the administration of the compounds intravenously or orally at doses of 0.1 to 300 mg/kg. The dose of compound needed to produce 50% inhibition of the control response to angiotensin II (IC50) is used to estimate the potency of the compounds. […]
smiles,measurement,value
CCCCc1ncc(CSc2ccccc2C(=O)O)n1Cc1ccc(C(=O)O)cc1 [S-[(2-n-Butyl-1-{(4-carboxyphenyl)methyl}-1H-imidazol-5-yl)methyl]thiosalicyclic Acid],ED50,~0.5 mg/kg
